Columns and labels:
degenerated disc tissue = assay: Disc regeneration effects by disc tissue staining (H&E) in disc degeneration model; type: in vivo, rabbits (New Zealand white rabbits); conditions: 0.5 mM/animal, local intradiscal injection twice
Method: 30 rabbits (New Zealand white rabbits; Orient Bio Inc.), weighing 3 to 3.5 kg, were prepared irrespective of sex.
The rabbits were anesthetized by intramuscular injection of 5 mg/kg of xylazine (Rompun, Bayer) and 35 mg/kg of ketamine hydrochloride (Ketalar, Pfizer). Prior to the procedure, lateral plain X-ray using a fluoroscopic apparatus (Model VPX-200; Toshiba Co.) was obtained to establish the pre-injection baseline height of intervertebral disc. The baseline control refers to a standard for measurement of a disc space. After the rabbits were positioned on the laboratory table, L23, L34, L45, and L56 disc levels were confirmed by the machine, and annulus fibrosus was stabbed into the posterolateral side of the disc at L23, L45, and L56 levels, using an 18G needle. After recovery from the anesthesia, the animals were housed in a cage under the following breeding conditions: temperature 20-25° C., humidity 10%-50%, and Light/Dark (L/D) cycle: (light from 08:00 a.m. to 20:00 p.m.). All animals were fed once a day. X-ray photographs were taken 2 and 4 weeks after the initial annular puncture. The X-ray was taken after anesthesia. Based on the results of X-ray, an intervertebral disc height (IVD height) was measured. From the measurement results, disc degeneration degree was quantified by a modification of the method disclosed in Lu et al., Spine. 22:1828-34, 1997.
Thereafter, experiments were carried out for two separate groups, DMSO-administered control group and Example 1 peptide-administered experimental group, and the rabbits were euthanized by injection of ketamine (25 mg/kg) and sodium pentobarbital (1.2 g/kg, Nembutal, Ovation) according to the planned schedule, followed by extraction of the disc for histological and biochemical analysis, respectively.
Disc-degenerated rabbits from Section 2-1 were divided into two groups. Each group was given dimethyl sulfoxide (DMSO) and the peptide of Example 1 (0.5 mM/animal) by local intradiscal injection twice. The administration point for each group was 4 weeks after the induction of disc degeneration and 2 weeks thereafter. After the second administration, the animals were raised for 2, 4, and 8 weeks, respectively. At Weeks 4, 6, and 10 after the first administration of each of the Example 1 peptide and DMSO, the corresponding respective disc tissues were extracted and fixed in formalin. The fixed disc tissues were embedded in paraffin, and serial sections having a thickness of […] along the sagittal plane were prepared. Of these sections, two mid-sagittal sections were stained with hematoxylin and eosin (H&E). For the comparison with the normal disc tissue, the disc was extracted, treated and stained from the rabbits with no induction of disc degeneration according to the same method described above. […]

aggrecan gene = assay: Aggrecan gene expression in disc tissues by real-time PCR in disc degeneration model; type: in vivo, rabbits (New Zealand white rabbits); conditions: Week 4 after first administration; 0.5 mM/animal intradiscal at Weeks 0 and 2
Method: Real-time PCR was carried out to examine a gene expression level of aggrecan, which is a representative extracellular matrix component in disc tissues.
In the same manner as in Example 2-1, animals were prepared and divided into two groups, to each of which DMSO and the peptide of Example 1 (0.5 mM/animal) were administered by local intradiscal injection. The administration point for each group was 4 weeks after the induction of disc degeneration and 2 weeks thereafter. After the second administration, the animals were raised for 2, 4, and 8 weeks, respectively. […]
The quantity of mRNA of GAPDH and aggrecan was examined by a Prism 7900HT (ABI) using PowerSYBR Green PCR Master Mix (Applied Biosystems Inc.). […] GAPDH was selected as a reference gene, and a CT value difference (ΔCT) between the reference gene and the aggrecan gene was calculated. In addition, a CT value difference (ΔΔCT) between the normal disc and the Example 1 peptide-administered disc (or DMSO-administered disc) was calculated. Then, 2^(−ΔΔCT) was calculated and expressed in terms of percentage relative to the normal disc value.

TGF-beta1 signaling = TGF-beta1 signaling inhibition: phosphorylated Smad2 Western blot in HepG2 cells; type: cell-based
Method: Inhibition of TGF-beta1 signaling by the peptide of Example 1 was confirmed in accordance with the following experimental method.
Treatment of HepG2 cells with TGF-beta1 is known to result in apoptosis, during which Smad2 is first phosphorylated (Park T J. et al., Mol. Carcinog. 47:784-796, 2008; and Gressner A M. et al., J Hepatol. 26:1079-1092, 1997). Using these properties, the experiment was carried out as follows. 1×10^6 of HepG2 cells (ATCC; American Type Culture Collection) were seeded in a 60 mm dish, stabilized overnight, and then depleted of nutrients by serum-free media (SFM) for 24 hours. Prior to treatment of the cells with the peptide of Example 1, 5 ng/mL of TGF-beta1 (PromoKine, Germany) and the above peptide (1, 5, and 25 μM) were subjected to pre-incubation at 37° C. for 1 hour. Further, DMSO (2 μl/mL) was also pre-incubated with TGF-beta1 (5 ng/mL) at 37° C. for 1 hour. Then, the cells were treated with the pre-incubated solutions for 30 minutes, followed by extraction of proteins. In addition, the cells were previously treated only with […] of SB431542 (TOCRIS, USA), an inhibitor of the TGF-beta receptor, followed by incubation for 1 hour, and then treated with TGF-beta1 (5 ng/mL) for 30 minutes. Then, the cells were homogenized on ice in Radioimmunoprecipitation (RIPA) Lysis Buffer (Millipore) {50 mM Tris-HCl (pH 7.4), 150 mM NaCl, 0.25% deoxycholic acid, 1% NP-40, 1 mM ethylenediaminetetraacetic acid (EDTA), 1 mM phenylmethylsulfonyl fluoride (PMSF), 40 mM NaF, 1 mM Na3VO4, 1 mM dithiothreitol (DTT)}. […]
FIG. 3 illustrates the Western blot results (Lane 1: non-treated HepG2 cells, Lane 2: TGF-beta1-treated cells, Lane 3: TGF-beta1/SB431542-treated cells, Lanes 4, 5 and 6: cells treated with 1, 5, and 25 μM of peptide/TGF-beta1, respectively, and Lane 7: TGF-beta1/DMSO-treated cells). […] The bottom of FIG. 3 illustrates the Coomassie Blue staining results of the membrane used in Western blot, showing that the quantity of the protein is the same in all the lanes.

Row | Compound | distinction between nucleus pulposus and annulus fibrosus (degenerated disc tissue; Week 10) | extracellular matrix components in disc tissue (degenerated disc tissue; Week 10) | size of disc as compared to the DMSO-administered disc tissue (degenerated disc tissue; Week 10) | staining of cell nuclei in the nucleus pulposus region (degenerated disc tissue; Week 10, x400) | aggrecan gene expression as compared to the DMSO-administered disc tissue (aggrecan gene) | phosphorylation degree of Smad2 (TGF-beta1 signaling; peptide 1, 5 and 25 μM pre-incubated with TGF-beta1 5 ng/mL for 1 hour, cells treated 30 minutes) | extent of TGF-beta1 signaling inhibition (TGF-beta1 signaling; peptide 1, 5 and 25 μM, compared with SB431542) | phosphorylation of Smad2 (TGF-beta1 signaling; pre-treated with 1004 of SB431542 for 1 hour, then TGF-beta1 5 ng/mL for 30 minutes)
1 | LQVVYLH [Example 1] | discernible between the nucleus pulposus and the annulus fibrosus | abundance of extracellular matrix components | increased size of disc | vivid staining of the cell nuclei | increase in the aggrecan gene expression | decreased in a dose-dependent manner | does not completely inhibit TGF-beta1 signaling | –
2 | NC(=O)c1ccc(-c2nc(-c3ccc4c(c3)OCO4)c(-c3ccccn3)[nH]2)cc1 [SB431542, reference compound] | – | – | – | – | – | – | – | complete inhibition of phosphorylation

— US8691749B2, “Peptide and use thereof” (Ensoltek Co., Ltd., priority 2009, dated 2014)
